# Test results taken from ChEMBL document CHEMBL1139147, “Evaluation of fluorescently labeled xylopyranosides as probes for proteoglycan biosynthesis” (Bioorg Med Chem Lett, 2007).
# Calls of active or inactive are those of the source. The calls are words filed in the database; no cut-off is given here.
# Assays:
# [1] = Partition coefficient, log P assessed as retention time; format: physicochemical; conditions: octanol/water
# [2] = system: T-24; assay: Suppression of glycosaminoglycan production in T24 cells at 0.1 mM; format: functional, cell-based; conditions: Homo sapiens
# [3] = system: T-24; assay: Suppression of proteoglycan production in T24 cells at 0.1 mM; format: functional, cell-based; conditions: Homo sapiens
SMILES,Activity [1] [min],Activity [2],Activity [3]
CN(C)c1cccc2c(S(=O)(=O)Oc3ccc4cc(O[C@@H]5OC[C@@H](O)[C@H](O)[C@H]5O)ccc4c3)cccc12,38.48,Active,Active
Oc1ccc2cc(O[C@@H]3OC[C@@H](O)[C@H](O)[C@H]3O)ccc2c1,17.73,–,–
Oc1cc2ccc(O[C@@H]3OC[C@@H](O)[C@H](O)[C@H]3O)cc2cc1COCc1c2ccccc2cc2ccccc12,43.4,–,–
